Measured values taken from patent US20240415918A1, “Polypeptide and its use as a CCK receptor agonist/antagonist” (Centre for Regenerative Medicine & Health, Hong Kong …, priority 2021, published 2024).
Where a SMILES comes first, the peptide text is derived from it. Where no end group is shown, it is not given here. [ ]: non-standard residue; d: D form. NMeW = CN[C@@H](Cc1c[nH]c2ccccc12)C(=O)O; Phe(3-Br) = N[C@@H](Cc1cccc(Br)c1)C(=O)O; dNMeW = CN[C@H](Cc1c[nH]c2ccccc12)C(=O)O; Aad = N[C@@H](CCCC(=O)O)C(=O)O; Aoc(2) = CCCCCC[C@H](N)C(=O)O; Nle = CCCC[C@H](N)C(=O)O

Target: T1, CCK-B receptors (CHO-CCK) (Homo sapiens, UniProt P32239)
T1 construct: expressed in transfected cells; host or cells: CHO (CHO-CCK model cells)
T1 sequence (P32239 1-447): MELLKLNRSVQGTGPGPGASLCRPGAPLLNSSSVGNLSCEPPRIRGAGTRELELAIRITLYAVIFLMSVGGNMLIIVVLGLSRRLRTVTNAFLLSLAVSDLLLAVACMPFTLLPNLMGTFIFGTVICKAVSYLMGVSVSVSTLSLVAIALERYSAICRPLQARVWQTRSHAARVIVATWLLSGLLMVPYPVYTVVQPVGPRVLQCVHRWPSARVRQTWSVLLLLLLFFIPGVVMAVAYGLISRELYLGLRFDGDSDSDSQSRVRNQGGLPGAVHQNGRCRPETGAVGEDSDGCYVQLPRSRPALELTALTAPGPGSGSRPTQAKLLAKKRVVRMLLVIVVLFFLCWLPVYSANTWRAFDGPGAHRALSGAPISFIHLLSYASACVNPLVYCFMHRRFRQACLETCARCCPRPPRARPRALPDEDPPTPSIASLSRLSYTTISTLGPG
Assay: Calcium flux (Fluo-8) agonist test on CHO-CCK model cells
Assay type: cell-based
Conditions: for Agonistic Activity (%) at 10 μM: compound at 10 μM, percentage of signal of 20 nM CCK8 alone; for % Act-Ave @ 1 nM: compound at 1 nM; for % Act-Ave @ 1 nM / % Act-Ave @ 50 nM / EC50: CHO-CCK cells; for % Act-Ave @ 50 nM: compound at 50 nM
Description: • To detect changes in intracellular calcium ion concentration after the compound acts on model cells containing CCK-B receptors (CHO-CCK).
• 1. The compound was formulated to a 10 mM mother liquor with DMSO, and then diluted into a series of 9 concentrations with a 3-fold gradient to form a 1000× stock solution.
2.1 Agonist • The compound stock solution was subjected to 200-fold dilution with HHBS buffer to form a 5× working solution.
• 1. Plate CHO-CCK cells in a 96-well plate with media containing 1% FBS, 30,000 cells/well/100 μL, and incubate overnight at 37° C. • 2. Prepare 1×Fluo-8 analysis buffer: mix 9 mL of HHBS, 1 mL of 10× Pluronic F127 Plus and 20 μL of Fluo-8 thoroughly for later use. • 3. Add Fluo-8 dye working solution to the cell plate, 100 μL/well. First incubate in a 37° C. incubator for 30 min, and then take it out and incubate at room temperature in the dark for 30 min. • 4. In the process of incubating cells, the compounds to be detected were prepared with HHBS. • 5.
The agonism/antagonism EC50 of the compound can be obtained by plotting the fitting curve with the agonism/antagonism percentage as Y-axis and the concentration of the compound as X-axis.

Compound | Agonistic Activity (%) at 10 μM | further results
COC(=O)C[C@H](NC(=O)[C@H](CCS(C)(=O)=O)NC(=O)[C@H](N)Cc1c[nH]c2ccccc12)C(=O)N[C@@H](Cc1cccc(C)c1)C(N)=O [HT-130, D-Trp-Met(O2)-Asp(Ome)-Phe(3-I)-NH2] | 0.86% | 
CCCC[C@H](NC(=O)[C@H](Cc1c[nH]c2ccccc12)N(C)C(C)=O)C(=O)N[C@@H](CCCC(=O)O)C(=O)N[C@@H](Cc1cccc(Br)c1)C(N)=O [HT-271, Ac-Trp-Nle-Aa-Phe(3-Br)-NH2] (Ac-[NMeW][Nle][Aad][Phe(3-Br)]-NH2) |  | % Act-Ave @ 1 nM: 40.66%; % Act-Ave @ 50 nM: 104.56%
CS(=O)(=O)CC[C@H](NC(=O)[C@H](N)Cc1c[nH]c2ccccc12)C(=O)N[C@@H](CC(=O)O)C(=O)N[C@@H](Cc1ccc(F)cc1)C(N)=O [HT-70, D-Trp-Met(O2)-Asp-Phe(4-F)-NH2] | 35.31% | EC50 (compound alone, 100% = 20 nM CCK8): 11.4 µM
HHHHHHSSGGDYMGWKDF-NH2 [HT-287] |  | % Act-Ave @ 1 nM: 77.83%; % Act-Ave @ 50 nM: 99.10%
CS(=O)(=O)CC[C@H](NC(=O)[C@H](N)Cc1c[nH]c2ccccc12)C(=O)N[C@@H](CC(=O)O)C(=O)N[C@@H](Cc1ccc([N+](=O)[O-])cc1)C(N)=O [HT-67, D-Trp-Met(O2)-Asp-Phe(4-NO2)-NH2] | −1.49% | 
COC(=O)C[C@H](NC(=O)[C@H](CCS(C)(=O)=O)NC(=O)[C@H](N)Cc1c[nH]c2ccccc12)C(=O)N[C@@H](Cc1ccc(Br)cc1)C(N)=O [HT-136, D-Trp-Met(O2)-Asp(Ome)-Phe(4-Br)-NH2] | 2.69% | 
COC(=O)C[C@H](NC(=O)[C@H](CC[S+](C)[O-])NC(=O)[C@H](N)Cc1c[nH]c2ccccc12)C(=O)N[C@@H](Cc1ccc([N+](=O)[O-])cc1)C(N)=O (stereo partly drawn) [HT-118, D-Trp-Met(O)-Asp(Ome)-Phe(4-NO2)-NH2] | 0.13% | 
CCCC[C@H](NC(=O)[C@@H](Cc1c[nH]c2ccccc12)N(C)C(C)=O)C(=O)N[C@@H](CCCC(=O)O)C(=O)N[C@@H](Cc1cccc(Br)c1)C(N)=O [HT-270, Ac-D-Trp-Nle-Aa-Phe(3-Br)-NH2] (Ac-[dNMeW][Nle][Aad][Phe(3-Br)]-NH2) |  | % Act-Ave @ 1 nM: −0.03%; % Act-Ave @ 50 nM: 80.85%
COC(=O)C[C@H](NC(=O)[C@H](CC[S+](C)[O-])NC(=O)[C@H](N)Cc1c[nH]c2ccccc12)C(=O)N[C@@H](Cc1cc(F)c(F)c(F)c1)C(N)=O (stereo partly drawn) [HT-125, D-Trp-Met(O)-Asp(Ome)-Phe(3,4,5-TriF)-NH2] | −4.16% | 
CS(=O)(=O)CC[C@H](NC(=O)[C@H](N)Cc1c[nH]c2ccccc12)C(=O)N[C@@H](CC(=O)O)C(=O)N[C@@H](Cc1ccc(I)cc1)C(N)=O [HT-71, D-Trp-Met(O2)-Asp-Phe(4-I)-NH2] | 13.13% | 
CC(C)C[C@H](NC(=O)[C@H](N)Cc1c[nH]c2ccccc12)C(=O)N[C@@H](CC(=O)O)C(=O)N[C@@H](Cc1cccc(Br)c1)C(=O)N[C@H](C)C(N)=O [HT-289, D-Trp-Val-Asp-Phe(3-Br)-D-Ala-NH2] |  | EC50 (Fluo-8 calcium flux, 100% control = 20 nM CCK8): 3.19 µM
COC(=O)C[C@H](NC(=O)[C@H](CC[S+](C)[O-])NC(=O)[C@H](N)Cc1c[nH]c2ccccc12)C(=O)N[C@@H](Cc1ccc(N=[N+]=[N-])cc1)C(N)=O (stereo partly drawn) [HT-116, D-Trp-Met(O)-Asp(Ome)-Phe(4-N3)-NH2] | 10.90% | 
CSCC[C@H](NC(C)=O)C(=O)N[C@@H](CC(=O)O)C(=O)N[C@@H](Cc1ccccc1)C(N)=O [HT-280, Ac-Met-Asp-Phe-NH2] (Ac-Met-Asp-Phe-NH2) |  | % Act-Ave @ 1 nM: −0.33%; % Act-Ave @ 50 nM: −0.16%
CCCCCC[C@H](NC(C)=O)C(=O)N[C@@H](CC(=O)O)C(=O)N[C@@H](Cc1cccc(Br)c1)C(N)=O [HT-281, Ac-Oa-Asp-Phe(3-Br)-NH2] (Ac-[Aoc(2)]-Asp-[Phe(3-Br)]-NH2) |  | % Act-Ave @ 1 nM: −0.09%; % Act-Ave @ 50 nM: 0.03%
COC(=O)C[C@H](NC(=O)[C@H](CC[S+](C)[O-])NC(=O)[C@H](N)Cc1c[nH]c2ccccc12)C(=O)N[C@@H](Cc1cc(F)cc(F)c1)C(N)=O (stereo partly drawn) [HT-124, D-Trp-Met(O)t-Asp(Ome)-Phe(3,5-DiF)-NH2] | 0.71% | 
C[S+]([O-])CC[C@H](NC(=O)[C@H](N)Cc1c[nH]c2ccccc12)C(=O)N[C@@H](CC(=O)OCCNc1cccc2c(O)cccc12)C(=O)N[C@@H](Cc1ccccc1[N+](=O)[O-])C(N)=O (stereo partly drawn) [HT-143, D-Trp-Met(O)-Asp(EDANS)-Phe(2-NO2)-NH2] | 4.33% | 

Compound | Agonistic Activity (%) at 10 μM | further results
COC(=O)C[C@H](NC(=O)[C@H](CC[S+](C)[O-])NC(=O)[C@H](N)Cc1c[nH]c2ccccc12)C(=O)N[C@@H](Cc1ccc(I)cc1)C(N)=O (stereo partly drawn) [HT-122, D-Trp-Met(O)-Asp(Ome)-Phe(4-I)-NH2] | 5.16% | 
COC(=O)C[C@H](NC(=O)[C@H](CCSC)NC(=O)[C@H](N)Cc1c[nH]c2ccccc12)C(=O)N[C@@H](Cc1ccc(Cl)cc1)C(N)=O [HT-86, D-Trp-Met-Asp(Ome)-Phe(4-Cl)-NH2] | −0.94% | 
COC(=O)C[C@H](NC(=O)[C@H](CCS(C)(=O)=O)NC(=O)[C@H](N)Cc1c[nH]c2ccccc12)C(=O)N[C@@H](Cc1ccc(N=[N+]=[N-])cc1)C(N)=O [HT-133, D-Trp-Met(O2)-Asp(Ome)-Phe(4-N3)-NH2] | 8.66% | 
COC(=O)C[C@H](NC(=O)[C@H](CC[S+](C)[O-])NC(=O)[C@H](N)Cc1c[nH]c2ccccc12)C(=O)N[C@@H](Cc1cc(Cl)cc(Cl)c1)C(N)=O (stereo partly drawn) [HT-123, D-Trp-Met(O)-Asp(Ome)-Phe(3,5-DiCl)-NH2] | 0.84% | 
COC(=O)C[C@H](NC(=O)[C@H](CCS(C)(=O)=O)NC(=O)[C@H](N)Cc1c[nH]c2ccccc12)C(=O)N[C@@H](Cc1cccc(F)c1)C(N)=O [HT-129, D-Trp-Met(O2)-Asp(Ome)-Phe(3-F)-NH2] | −4.28% | 
COC(=O)C[C@H](NC(=O)[C@H](CC[S+](C)[O-])NC(=O)[C@H](N)Cc1c[nH]c2ccccc12)C(=O)N[C@@H](Cc1cccc(Cl)c1)C(N)=O (stereo partly drawn) [HT-111, D-Trp-Met(O)-Asp(Ome)-Phe(3-Cl)-NH2] | −7.28% | 
Cc1ccc(C[C@H](NC(=O)[C@H](CC(=O)OCCNc2cccc3c(O)cccc23)NC(=O)[C@H](CCS(C)(=O)=O)NC(=O)[C@H](N)Cc2c[nH]c3ccccc23)C(N)=O)cc1 [HT-166, D-Trp-Met(O2)-Asp(EDANS)-Phe(4-Me)-NH2] | 3.59% | 
CSCC[C@H](NC(=O)[C@H](CC(=O)O)NC(=O)[C@H](Cc1ccccc1)NC(C)=O)C(=O)N[C@H](Cc1c[nH]c2ccccc12)C(N)=O [HT-6, Ac-Phe-Asp-Met-D-Trp-NH2] (Ac-FDM[dW]-NH2) |  | EC50 (compound alone, bound in μM): > 10 µM
C[S+]([O-])CC[C@H](NC(=O)[C@H](N)Cc1c[nH]c2ccccc12)C(=O)N[C@@H](CC(=O)O)C(=O)N[C@@H](Cc1ccccc1)C(N)=O (stereo partly drawn) [HT-16, D-Trp-Met(O)-Asp-Phe-NH2] | 19.11% | 
COC(=O)C[C@H](NC(=O)[C@H](CCS(C)(=O)=O)NC(=O)[C@H](N)Cc1c[nH]c2ccccc12)C(=O)N[C@@H](Cc1cc(F)cc(F)c1)C(N)=O [HT-141, D-Trp-Met(O2)-Asp(Ome)-Phe(3,5-DiF)-NH2] | 5.60% | 
CSCC[C@H](NC(C)=O)C(=O)N[C@@H](CC(=O)O)C(=O)N[C@@H](Cc1cccc(Br)c1)C(N)=O [HT-282, Ac-Met-Asp-Phe(3-Br)-NH2] (Ac-Met-Asp-[Phe(3-Br)]-NH2) |  | % Act-Ave @ 1 nM: 0.13%; % Act-Ave @ 50 nM: 0.45%
CS(=O)(=O)CC[C@H](NC(=O)[C@H](N)Cc1c[nH]c2ccccc12)C(=O)N[C@@H](CC(=O)O)C(=O)N[C@@H](Cc1ccc(Cl)cc1)C(N)=O [HT-69, D-Trp-Met(O2)-Asp-Phe(4-Cl)-NH2] | 20.02% | 
COC(=O)C[C@H](NC(=O)[C@H](CCS(C)(=O)=O)NC(=O)[C@H](N)Cc1c[nH]c2ccccc12)C(=O)N[C@@H](Cc1cccc(Cl)c1)C(N)=O [HT-128, D-Trp-Met(O2)-Asp(Ome)-Phe(3-Cl)-NH2] | 0.73% | 
COC(=O)C[C@H](NC(=O)[C@H](CC[S+](C)[O-])NC(=O)[C@H](N)Cc1c[nH]c2ccccc12)C(=O)N[C@@H](Cc1ccc(C)cc1)C(N)=O (stereo partly drawn) [HT-115, D-Trp-Met(O)-Asp(Ome)-Phe(4-Me)-NH2] | 9.82% | 
C[S+]([O-])CC[C@H](NC(=O)[C@H](N)Cc1c[nH]c2ccccc12)C(=O)N[C@@H](CC(=O)OCCNc1cccc2c(O)cccc12)C(=O)N[C@@H](Cc1cccc(Cl)c1)C(N)=O (stereo partly drawn) [HT-145, D-Trp-Met(O)t-Asp(EDANS)-Phe(3-Cl)-NH2] | −5.52% | 
